{"source": "patent US10752637B2", "about": "“Bis-diox(ol)ane compounds” (Koninklijke Coöperatie Cosun U.A., priority 2016, dated 2020)", "assay": "water-solubility of the product", "data": [{"smiles": "CC1(C)OC(C2OC(C)(C)O[C@H]2C(=O)NCCO)[C@@H](C(=O)NCCO)O1", "note": "(some centres unmarked) [GalX-di-ethanolamide]", "values": [{"measurement": "water-solubility", "setting": "in water, at ambient temperature", "value": "approximately 25 wt. %"}, {"measurement": "solubility", "setting": "water", "value": "~350", "unit": "mg/mL"}]}]}
